pIC50: −log10 of the molar value.
Tested on: 556581-035-R-J1-PDC complex spheroid viability
Experiment: Anticancer human tumor 556581-035-R-J1-PDC patient-derived ovarian carcinoma cell line growth inhibition
Conditions: for pIC50: curve of first compound; for viability, T/C: stronger effect = lower value
How it was run: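 Complex spheroids of tumor cells with HUVEC and human MSCs, exposed to iadademstat combined with other agents. Each agent tested in half-log steps from near clinical Cmax (else 10 microM top), DMSO ≤0.25%.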

[1] = second compound 0.1 µM, first compound 0.0316 µM
[2] = second compound 0.1 µM, first compound 0.1 µM
[3] = second compound 0.1 µM, first compound 0.316 µM
[4] = second compound 0.1 µM, first compound 1 µM
[5] = second compound 0.316 µM, first compound 0.0316 µM
[6] = second compound 0.316 µM, first compound 0.1 µM
[7] = second compound 0.316 µM, first compound 0.316 µM
[8] = second compound 0.316 µM, first compound 1 µM
[9] = second compound 1 µM, first compound 0.0316 µM
[10] = second compound 1 µM, first compound 0.1 µM
[11] = second compound 1 µM, first compound 0.316 µM
[12] = second compound 1 µM, first compound 1 µM
[13] = second compound 3.16 µM, first compound 0.0316 µM
[14] = second compound 3.16 µM, first compound 0.1 µM
[15] = second compound 3.16 µM, first compound 0.316 µM
[16] = second compound 3.16 µM, first compound 1 µM
[17] = second compound 10 µM, first compound 0.0316 µM
[18] = second compound 10 µM, first compound 0.1 µM
[19] = second compound 10 µM, first compound 0.316 µM
[20] = second compound 10 µM, first compound 1 µM
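Further: spheroids exposed to agents for seven days.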
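Wherever viability, T/C is given: 100% = DMSO vehicle control wells.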

`COc1ccc([C@@H](O)c2cc(-c3ncnc4cc(N5CCOCC5)ccc34)c(F)cc2Cl)nn1` + NC1CC1c1ccc(-c2cccc(O)c2)cc1 gave a pIC50 (second compound 0.1 µM) of 6.07, a pIC50 (second compound 0.316 µM) of 6.03 and a pIC50 (second compound 1 µM) of 6.00. It also gave a pIC50 (second compound 3.16 µM) of 6.21, a pIC50 (second compound 10 µM) of 5.98 and a viability, T/C [1] of 102%. The viability, T/C [2] was 87%, the viability, T/C [3] was 68.2% and the viability, T/C [4] was 46.3%. The viability, T/C (second compound 0.1 µM, first compound 3.16 µM) was 34.5%, the viability, T/C (second compound 0.1 µM, first compound 10 µM) was 26.9% and the viability, T/C [5] was 85.2%. The viability, T/C [6] was 75.9%, the viability, T/C [7] was 62.7% and the viability, T/C [8] was 48.4%. The viability, T/C (second compound 0.316 µM, first compound 3.16 µM) was 37.9%, the viability, T/C (second compound 0.316 µM, first compound 10 µM) was 27.3% and the viability, T/C [9] was 82.5%. The viability, T/C [10] was 79.8%, the viability, T/C [11] was 55.1% and the viability, T/C [12] was 52.6%. For the same molecule, the viability, T/C (second compound 1 µM, first compound 3.16 µM) was 38.7%, the viability, T/C (second compound 1 µM, first compound 10 µM) was 25.3% and the viability, T/C [13] was 82.8%. The viability, T/C [14] was 84.2%, the viability, T/C [15] was 64.5% and the viability, T/C [16] was 39.7%. The viability, T/C (second compound 3.16 µM, first compound 3.16 µM) was 34%, the viability, T/C (second compound 3.16 µM, first compound 10 µM) was 30.1% and the viability, T/C [17] was 97.4%. For the same molecule, the viability, T/C [18] was 79.6%, the viability, T/C [19] was 64.8% and the viability, T/C [20] was 48.5%. For the same molecule, the viability, T/C (second compound 10 µM, first compound 3.16 µM) was 41.3% and the viability, T/C (second compound 10 µM, first compound 10 µM) was 24.4%.
With `Nc1ncn(C2CC(O)C(CO)S2)c(=O)n1` (stereo not given) + NC1CC1c1ccc(-c2cccc(O)c2)cc1 the pIC50 (second compound 0.1 µM) was 7.43, the pIC50 (second compound 0.316 µM) was 7.48 and the pIC50 (second compound 1 µM) was 7.46. The pIC50 (second compound 3.16 µM) was 7.47, the pIC50 (second compound 10 µM) was 7.54 and the viability, T/C (second compound 0.1 µM, first compound 0.000949 µM) was 86.7%. The viability, T/C (second compound 0.1 µM, first compound 0.003 µM) was 84.5%, the viability, T/C (second compound 0.1 µM, first compound 0.00949 µM) was 78.2% and the viability, T/C (second compound 0.1 µM, first compound 0.03 µM) was 52%. For the same molecule, the viability, T/C (second compound 0.1 µM, first compound 0.0949 µM) was 34.1%, the viability, T/C (second compound 0.1 µM, first compound 0.3 µM) was 20.6% and the viability, T/C (second compound 0.316 µM, first compound 0.000949 µM) was 85.9%. The viability, T/C (second compound 0.316 µM, first compound 0.003 µM) was 80%, the viability, T/C (second compound 0.316 µM, first compound 0.00949 µM) was 88.1% and the viability, T/C (second compound 0.316 µM, first compound 0.03 µM) was 52.4%. For the same molecule, the viability, T/C (second compound 0.316 µM, first compound 0.0949 µM) was 27.9%, the viability, T/C (second compound 0.316 µM, first compound 0.3 µM) was 22.4% and the viability, T/C (second compound 1 µM, first compound 0.000949 µM) was 80.5%. It also gave a viability, T/C (second compound 1 µM, first compound 0.003 µM) of 83.5%, a viability, T/C (second compound 1 µM, first compound 0.00949 µM) of 70% and a viability, T/C (second compound 1 µM, first compound 0.03 µM) of 54.1%. For the same molecule, the viability, T/C (second compound 1 µM, first compound 0.0949 µM) was 30.8%, the viability, T/C (second compound 1 µM, first compound 0.3 µM) was 24% and the viability, T/C (second compound 3.16 µM, first compound 0.000949 µM) was 88.7%. It also gave a viability, T/C (second compound 3.16 µM, first compound 0.003 µM) of 93.6%, a viability, T/C (second compound 3.16 µM, first compound 0.00949 µM) of 73.7% and a viability, T/C (second compound 3.16 µM, first compound 0.03 µM) of 52.6%. It also gave a viability, T/C (second compound 3.16 µM, first compound 0.0949 µM) of 33.1%, a viability, T/C (second compound 3.16 µM, first compound 0.3 µM) of 25.4% and a viability, T/C (second compound 10 µM, first compound 0.000949 µM) of 82.2%. It also gave a viability, T/C (second compound 10 µM, first compound 0.003 µM) of 79.7%, a viability, T/C (second compound 10 µM, first compound 0.00949 µM) of 65.4% and a viability, T/C (second compound 10 µM, first compound 0.03 µM) of 52%. For the same molecule, the viability, T/C (second compound 10 µM, first compound 0.0949 µM) was 32.1% and the viability, T/C (second compound 10 µM, first compound 0.3 µM) was 29.9%.
`O=C(C=Cn1cnc(-c2cc(C(F)(F)F)cc(C(F)(F)F)c2)n1)NNc1cnccn1` + NC1CC1c1ccc(-c2cccc(O)c2)cc1 gave a pIC50 (second compound 0.1 µM) of 7.39, a pIC50 (second compound 0.316 µM) of 7.29 and a pIC50 (second compound 1 µM) of 7.15. For the same molecule, the pIC50 (second compound 3.16 µM) was 7.13, the pIC50 (second compound 10 µM) was 7.10 and the viability, T/C (second compound 0.1 µM, first compound 0.00316 µM) was 68%. For the same molecule, the viability, T/C (second compound 0.1 µM, first compound 0.01 µM) was 63.7%, the viability, T/C [1] was 52.4% and the viability, T/C [2] was 38.5%. The viability, T/C [3] was 16.9%, the viability, T/C [4] was 6.78% and the viability, T/C (second compound 0.316 µM, first compound 0.00316 µM) was 74.5%. For the same molecule, the viability, T/C (second compound 0.316 µM, first compound 0.01 µM) was 73.1%, the viability, T/C [5] was 61.4% and the viability, T/C [6] was 32.6%. It also gave a viability, T/C [7] of 22.7%, a viability, T/C [8] of 4.35% and a viability, T/C (second compound 1 µM, first compound 0.00316 µM) of 76.9%. For the same molecule, the viability, T/C (second compound 1 µM, first compound 0.01 µM) was 74.2%, the viability, T/C [9] was 72.3% and the viability, T/C [10] was 40.1%. It also gave a viability, T/C [11] of 17.2%, a viability, T/C [12] of 10.3% and a viability, T/C (second compound 3.16 µM, first compound 0.00316 µM) of 73.1%. The viability, T/C (second compound 3.16 µM, first compound 0.01 µM) was 74.3%, the viability, T/C [13] was 61% and the viability, T/C [14] was 43.7%. The viability, T/C [15] was 28%, the viability, T/C [16] was 8% and the viability, T/C (second compound 10 µM, first compound 0.00316 µM) was 71.3%. For the same molecule, the viability, T/C (second compound 10 µM, first compound 0.01 µM) was 77.7%, the viability, T/C [17] was 56.5% and the viability, T/C [18] was 52.3%. For the same molecule, the viability, T/C [19] was 20.2% and the viability, T/C [20] was 13.4%.
